One block for each compound: values may come before it.
Assays:
[1] = target: T1, bFGF (Homo sapiens, UniProt P09038); assay: Evaluation of bFGF stabilization in Lonza serum-free medium (ELISA); format: biochemical
T1 construct: purchased Lonza (via TAKARA BIO INC.) Ser. No. 00/190,632
Experimental: (§1) A test compound was dissolved in phosphate buffered saline, and diluted 10-fold with a serum-free medium to adjust to the concentrations shown in Table 4 (test sample). The test sample was left standing in a tightly sealed Falcon tube at 37° C. for 7 days (Tables 5 to 8-2) or 3 days (Table 8-3), and the bFGF concentration was quantified by ELISA measurement. A phosphate buffered saline without a test compound was diluted 10-fold with a serum-free medium, and left standing at 37° C. or 4° C. for 7 days or 3 days, and used as a control.
(§2) A commercially available measurement kit (human bFGF ELISA kit, ELH-bFGF-001, Ray Biotech) was used for quantification of bFGF in the medium. The measurement procedures followed the protocol attached to the kit. The bFGF concentration of the serum-free medium was calculated from the analytical curve (conversion formula) drawn from the absorbance of an analytical curve standard solution. The evaluation criteria of Tables 5-8 are as follows:
as §1, with “Table 13” for “Table 4”, “7 days,” for “7 days (Tables 5 to 8-2) or 3 days (Table 8-3),”, “7” for “7 days or 3”
as §2, with “Table 13” for “Tables 5-8”, “follows: […]” for “follows:”

[2] = target: T1, bFGF; assay: Evaluation of bFGF stabilization in Essential 8 medium (ELISA); format: biochemical; details: 37° C. for 7 days
Experimental: as §2
(§3) A test compound was dissolved in phosphate buffered saline, and diluted 10-fold with a serum-free medium to adjust the concentration shown in Table 4 (test sample). The test sample was left standing in a tightly sealed Falcon tube at 37° C. for 7 days, and the bFGF concentration was quantified by ELISA measurement. A phosphate buffered saline without a test compound was diluted 10-fold with Essential 8 medium or ReproFF2 medium, and left standing at 37° C. or 4° C. for 7 days, and used as a control.
as §2, with “Table 13” for “Tables 5-8”
as §3, with “Table 12” for “Table 4”

[3] = system: Human bone marrow-derived mesenchymal stem cells; assay: Mesenchymal stem cell proliferation system (cell number by DNA quantification)
Experimental: Human bone marrow-derived mesenchymal stem cells (Lonza, Human Mesenchymal Stem Cell) cultured in mesenchymal stem cell-dedicated medium (Lonza, MSCGM) or Dulbecco's Modified Eagle Medium (Invitrogen, GIBCO D-MEM) containing inactivated fetal bovine serum (Invitrogen, GIBCO FBS) and penicillin-streptomycin (Sigma-Aldrich Co. LLC.) were cultured in exchanged Lonza serum-free medium. The mesenchymal stem cells thus-acclimated to serum-free culture were suspended in Lonza serum-free medium, and seeded on a 24 well culture plate (Nippon Becton Dickinson Company, Ltd., Falcon culture plate) at 20,000 cells/well or a 6 well culture plate (Nippon Becton Dickinson Company, Ltd., Falcon culture plate) at 50,000 cells/well. Then, a test compound solution after filter sterilization and adjustment to a given concentration was added, and the cells were cultured in an incubator (Thermo Scientific, Forma incubator) under the 5% CO2/37° C. conditions for 7 to 8 days. When the medium exchange was necessary, the medium was exchanged 2 to 3 days after the seeding. In this case, the test compound solution was also added again in the same manner as in seeding. In this case, various compound solutions were added again in the same manner as in seeding. After culturing for 7 to 8 days, the medium was removed and DNA quantification was performed. As a control, the cells were cultured in the same manner in a medium without a test compound and added with phosphate buffered saline.
The medium in the 24 well culture plate was removed, and the cells were washed with phosphate buffered saline. The sodium lauryl sulfate solution (500 μl/well) was added, and the mixture was left standing at 37° C. for 4 hours. The sodium lauryl sulfate solution (1.0 ml) was also added to a cell pellet with a known cell number, and the mixture was left standing at 37° C. for 4 hours. As for the cells in the 24 well culture plate, a part (50 μl) of the lysate was transferred to a 96 well black microplate. The solution used for treating the cell pellets was successively diluted with sodium lauryl sulfate solution and used as solutions for drawing an analytical curve. Also, a part (50 μl) of the solutions for drawing an analytical curve was each transferred to the 96 well black microplate. […] The fluorescence was measured by a microplate reader (excitation wavelength: 355 nm, measurement wavelength: 460 nm) within 5 minutes from the addition. The cell number of the 24 well cell culture plate was calculated from the analytical curve drawn (conversion formula). The evaluation criteria were as follows.

[4] = Lonza serum-free medium, 37° C. for 7 days, test compound 25 ng/ml
[5] = Lonza serum-free medium, 37° C. for 7 days, test compound 250 ng/ml
[6] = Lonza serum-free medium, 37° C. for 7 days, test compound 25 μg/ml
[7] = Lonza serum-free medium, 37° C. for 7 days, test compound 250 μg/ml
[8] = Lonza serum-free medium, 37° C. for 7 days, test compound 250 pg/ml

T1 sequence (P09038 143-288): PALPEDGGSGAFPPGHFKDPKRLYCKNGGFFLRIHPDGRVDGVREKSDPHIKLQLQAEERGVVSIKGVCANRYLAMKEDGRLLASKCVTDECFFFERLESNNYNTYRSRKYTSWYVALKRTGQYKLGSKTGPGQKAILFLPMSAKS

Compound: OC[C@@H](O)[C@@H](O[C@H]1O[C@H](CO)[C@@H](O)[C@H](O)[C@H]1O)[C@H](O)[C@@H](O)CO [maltitol, reference compound]
bFGF concentration relative to that of 4° C. control (ELISA) [1, 4]: x (bFGF concentration was less than 10% relative to that of 4 °C control)
bFGF concentration relative to that of 4° C. control (ELISA) [1, 5]: x (bFGF concentration was less than 10% relative to that of 4 °C control)
bFGF concentration relative to that of 4° C. control (ELISA) [1, 6]: x (bFGF concentration was less than 10% relative to that of 4 °C control)
bFGF concentration relative to that of 4° C. control (ELISA) [1, 7]: x (bFGF concentration was less than 10% relative to that of 4 °C control)

Compound: OC[C@H]1O[C@H](O[C@H]2[C@H](O)[C@@H](O)[C@@H](O[C@H]3[C@H](O)[C@@H](O)C(O)O[C@@H]3CO)O[C@@H]2CO)[C@H](O)[C@@H](O)[C@@H]1O (stereo partly drawn) [maltotriose, reference compound]
bFGF concentration relative to that of 4° C. control (ELISA) [1, 4]: x (bFGF concentration was less than 10% relative to that of 4 °C control)
bFGF concentration relative to that of 4° C. control (ELISA) [1, 5]: x (bFGF concentration was less than 10% relative to that of 4 °C control)
bFGF concentration relative to that of 4° C. control (ELISA) [1, 6]: x (bFGF concentration was less than 10% relative to that of 4 °C control)
bFGF concentration relative to that of 4° C. control (ELISA) [1, 7]: x (bFGF concentration was less than 10% relative to that of 4 °C control)
bFGF concentration relative to that of 4° C. control (ELISA) ([2]; test compound 250 pg/ml): x (bFGF concentration was less than 10% relative to that of 4 °C control)
bFGF concentration relative to that of 4° C. control (ELISA) ([2]; test compound 25 ng/ml): x (bFGF concentration was less than 10% relative to that of 4 °C control)
bFGF concentration relative to that of 4° C. control (ELISA) ([2]; test compound 250 ng/ml): x (bFGF concentration was less than 10% relative to that of 4 °C control)
bFGF concentration relative to that of 4° C. control (ELISA) ([2]; test compound 25 μg/ml): x (bFGF concentration was less than 10% relative to that of 4 °C control)
bFGF concentration relative to that of 4° C. control (ELISA) ([2]; test compound 250 μg/ml): x (bFGF concentration was less than 10% relative to that of 4 °C control)

Compound: OC[C@@H](O)[C@@H](O)[C@H](O)[C@H](O)CO [mannitol, reference compound]
bFGF concentration relative to that of 4° C. control (ELISA) [1, 4]: x (bFGF concentration was less than 10% relative to that of 4 °C control)
bFGF concentration relative to that of 4° C. control (ELISA) [1, 5]: x (bFGF concentration was less than 10% relative to that of 4 °C control)
bFGF concentration relative to that of 4° C. control (ELISA) [1, 6]: x (bFGF concentration was less than 10% relative to that of 4 °C control)
bFGF concentration relative to that of 4° C. control (ELISA) [1, 7]: x (bFGF concentration was less than 10% relative to that of 4 °C control)

Compound: NC(COS(=O)(=O)[O-])C(=O)O.[Na+] (stereo not drawn) [serine SO3Na]
number of cells relative to control ([3]; test compound 25 pg/ml, mesenchymal stem cells): — (100-50)
number of cells relative to control ([3]; test compound 250 pg/ml, mesenchymal stem cells): — (100-50)
number of cells relative to control ([3]; test compound 25 ng/ml, mesenchymal stem cells): — (100-50)
number of cells relative to control ([3]; test compound 250 ng/ml, mesenchymal stem cells): — (100-50)
concentration showing a suppressive effect on a decrease in the bFGF concentration of the medium ([1]; Lonza serum-free medium, 37° C. for 7 days): not less than 25 μg/ml
bFGF concentration relative to that of 4° C. control (ELISA) [1, 8]: x (bFGF concentration was less than 10% relative to that of 4 °C control)
bFGF concentration relative to that of 4° C. control (ELISA) [1, 4]: x (bFGF concentration was less than 10% relative to that of 4 °C control)
bFGF concentration relative to that of 4° C. control (ELISA) [1, 5]: x (bFGF concentration was less than 10% relative to that of 4 °C control)
bFGF concentration relative to that of 4° C. control (ELISA) [1, 6]: − (bFGF concentration was not less than 10% and less than 30% relative to that of 4 °C control)
bFGF concentration relative to that of 4° C. control (ELISA) [1, 7]: +++ (bFGF concentration was not less than 70% relative to that of 4 °C control)

Compound: N[C@@H](CO)C(=O)O [serine, reference compound]
bFGF concentration relative to that of 4° C. control (ELISA) [1, 8]: x (bFGF concentration was less than 10% relative to that of 4 °C control)
bFGF concentration relative to that of 4° C. control (ELISA) [1, 4]: x (bFGF concentration was less than 10% relative to that of 4 °C control)
bFGF concentration relative to that of 4° C. control (ELISA) [1, 5]: x (bFGF concentration was less than 10% relative to that of 4 °C control)
bFGF concentration relative to that of 4° C. control (ELISA) [1, 6]: x (bFGF concentration was less than 10% relative to that of 4 °C control)
bFGF concentration relative to that of 4° C. control (ELISA) [1, 7]: x (bFGF concentration was less than 10% relative to that of 4 °C control)

Compound: OC[C@H]1O[C@@](CO)(O[C@H]2O[C@H](CO)[C@@H](O)[C@H](O)[C@H]2O)[C@@H](O)[C@@H]1O [sucrose, reference compound]
bFGF concentration relative to that of 4° C. control (ELISA) [1, 4]: x (bFGF concentration was less than 10% relative to that of 4 °C control)
bFGF concentration relative to that of 4° C. control (ELISA) [1, 5]: x (bFGF concentration was less than 10% relative to that of 4 °C control)
bFGF concentration relative to that of 4° C. control (ELISA) [1, 6]: x (bFGF concentration was less than 10% relative to that of 4 °C control)

Compound: OC[C@@H](O)[C@H](O)[C@@H](O)CO [xylitol, reference compound]
bFGF concentration relative to that of 4° C. control (ELISA) [1, 4]: x (bFGF concentration was less than 10% relative to that of 4 °C control)
bFGF concentration relative to that of 4° C. control (ELISA) [1, 5]: x (bFGF concentration was less than 10% relative to that of 4 °C control)
bFGF concentration relative to that of 4° C. control (ELISA) [1, 6]: x (bFGF concentration was less than 10% relative to that of 4 °C control)
bFGF concentration relative to that of 4° C. control (ELISA) [1, 7]: x (bFGF concentration was less than 10% relative to that of 4 °C control)

Compound: OC[C@H]1O[C@@H]2O[C@H]3[C@H](O)[C@@H](O)[C@@H](O[C@H]4[C@H](O)[C@@H](O)[C@@H](O[C@H]5[C@H](O)[C@@H](O)[C@@H](O[C@H]6[C@H](O)[C@@H](O)[C@@H](O[C@H]7[C@H](O)[C@@H](O)[C@@H](O[C@H]1[C@H](O)[C@H]2O)O[C@@H]7CO)O[C@@H]6CO)O[C@@H]5CO)O[C@@H]4CO)O[C@@H]3CO [α-CD, α-cyclodextrin, reference compound]
bFGF concentration relative to that of 4° C. control (ELISA) [1, 7]: x (bFGF concentration was less than 10% relative to that of 4 °C control)

concentration at which a decrease in the protein amount of FGF is not suppressed ([1]; as shown in the Examples (methods of Examples I-1 and II-1)): not more than 250 μg/ml
effectiveness ELISA ([1]; effectiveness in ELISA evaluation of mesenchymal stem cells (medium), 4° C. control ratio): ++ (++ 50%<)
concentration showing a suppressive effect on a decrease in the bFGF concentration of the medium [2]: not less than 250 μg/ml
Compound: tartrate-SO3Na
effectiveness cells ([3]; growth of mesenchymal stem cell, control ratio): ◯ (◯ not leas than 100%)
concentration showing promoted cell proliferation as compared to the control ([3]; mesenchymal stem cells, Lonza serum-free medium): 2.5 ng/mL
bFGF concentration relative to that of 4° C. control (ELISA) [1, 4]: x (bFGF concentration was less than 10% relative to that of 4 °C control)
bFGF concentration relative to that of 4° C. control (ELISA) [1, 5]: − (bFGF concentration was not less than 10% and less than 30% relative to that of 4 °C control)
bFGF concentration relative to that of 4° C. control (ELISA) [1, 6]: x (bFGF concentration was less than 10% relative to that of 4 °C control)
bFGF concentration relative to that of 4° C. control (ELISA) [1, 7]: x (bFGF concentration was less than 10% relative to that of 4 °C control)
bFGF concentration relative to that of 4° C. control (ELISA) ([2]; test compound 250 pg/ml): x (bFGF concentration was less than 10% relative to that of 4 °C control)
bFGF concentration relative to that of 4° C. control (ELISA) ([2]; test compound 25 ng/ml): x (bFGF concentration was less than 10% relative to that of 4 °C control)
bFGF concentration relative to that of 4° C. control (ELISA) ([2]; test compound 250 ng/ml): x (bFGF concentration was less than 10% relative to that of 4 °C control)
bFGF concentration relative to that of 4° C. control (ELISA) ([2]; test compound 25 μg/ml): x (bFGF concentration was less than 10% relative to that of 4 °C control)
bFGF concentration relative to that of 4° C. control (ELISA) ([2]; test compound 250 μg/ml): − (bFGF concentration was not less than 10% and less than 30% relative to that of 4 °C control)
